Measured values published in patent US8680275B2, “Fused heterocyclic compounds as orexin receptor modulators” (Janssen Pharmaceutica NV, priority 2009, dated 2014).
Like-named read-outs stand apart in the source and are kept apart here.

Experiments:
human orexin-2 receptor = human orexin-2 receptor (Homo sapiens (Human), UniProt O43614); assay: Human orexin 2 receptor radioligand binding ([3H]-EMPA competition); settings: read-out: OR-2 Ki
In short: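 Competition binding on HEK293 cells stably expressing human orexin-2 receptor, using 5 nM final [3H]-EMPA in PBS, compounds 0.1 nM to 10 μM (DMSO ≤0.1%). 60 min at room temperature, then filtration and scintillation counting; nonspecific binding defined with 10 μM of a reference antagonist.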

human orexin 1 receptor = human orexin 1 receptor (Homo sapiens (Human), UniProt O43613); assay: Human orexin 1 receptor radioligand binding ([3H]-SB674042 competition); settings: CHO cells stably expressing human orexin 1 receptor; [3H]-SB674042 4 nM final; read-out: OR-1 Ki
Sequence of human orexin 1 receptor (O43613 whole entry): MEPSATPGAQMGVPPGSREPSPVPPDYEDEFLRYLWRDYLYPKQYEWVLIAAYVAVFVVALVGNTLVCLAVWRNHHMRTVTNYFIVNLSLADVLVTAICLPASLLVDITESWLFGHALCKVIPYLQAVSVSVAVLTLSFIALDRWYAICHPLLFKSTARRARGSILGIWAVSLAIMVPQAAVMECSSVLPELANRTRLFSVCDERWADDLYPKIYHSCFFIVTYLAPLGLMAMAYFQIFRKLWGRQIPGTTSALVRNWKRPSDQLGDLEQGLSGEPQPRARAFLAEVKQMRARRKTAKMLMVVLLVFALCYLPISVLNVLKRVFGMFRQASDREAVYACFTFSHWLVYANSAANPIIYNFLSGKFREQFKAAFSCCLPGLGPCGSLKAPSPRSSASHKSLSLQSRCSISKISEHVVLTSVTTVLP
In short: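 CHO cells stably expressing human OX1R incubated 60 min at room temperature with [3H]-SB674042 and compounds (7 concentrations, 0.1 nM–10 μM; DMSO ≤0.1%) in PBS. Nonspecific binding defined with 10 μM of a reference urea antagonist; bound radioactivity measured by filtration and scintillation counting.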

[1] = HEK293 cells stably expressing human orexin-2 receptor, [3H]-EMPA 5 nM final

Sequence of human orexin-2 receptor (O43614 whole entry): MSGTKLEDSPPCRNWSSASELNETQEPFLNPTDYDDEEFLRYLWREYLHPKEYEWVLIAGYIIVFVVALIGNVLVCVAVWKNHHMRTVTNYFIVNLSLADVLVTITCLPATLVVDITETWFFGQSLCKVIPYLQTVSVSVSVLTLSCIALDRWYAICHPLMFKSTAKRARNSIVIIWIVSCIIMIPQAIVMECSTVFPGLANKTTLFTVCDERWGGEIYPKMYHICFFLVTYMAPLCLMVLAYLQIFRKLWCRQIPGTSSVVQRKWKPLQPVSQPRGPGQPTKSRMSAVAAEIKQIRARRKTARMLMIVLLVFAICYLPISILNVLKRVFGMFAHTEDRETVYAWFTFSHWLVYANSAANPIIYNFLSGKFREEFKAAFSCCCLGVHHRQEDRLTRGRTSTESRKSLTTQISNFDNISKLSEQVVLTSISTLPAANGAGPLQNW

| Structure (SMILES) | Ki (human orexin-2 receptor; [1]) | Ki (human orexin 1 receptor) | Ki (human orexin-2 receptor) |
| --- | --- | --- | --- |
| Cc1cc(C)nc(N2CC3CN(C(=O)c4ccccc4-c4cccs4)CC32)n1 (centres unmarked) [Example 57, 6-(4,6-Dimethylpyrimidin-2-yl)-3-[(2-thiophen-2-ylphenyl)carbonyl]-3,6-diazabicyclo[3.2.0]heptane] | 29 nM | 3570 nM |  |
| Cc1cc(C)nc(N2CC3CN(C(=O)c4ccccc4-n4nccn4)CC32)n1 (centres unmarked) [Example 66, 6-(4,6-Dimethylpyrimidin-2-yl)-3-{[2-(2H-1,2,3-triazol-2-yl)phenyl]carbonyl}-3,6-diazabicyclo[3.2.0]heptane] | 163 nM | 9650 nM |  |
| Cc1ccnc(N2CC3CN(C(=O)c4ccccc4-c4ccccc4)CC32)n1 (centres unmarked) [Example 61, 3-(Biphenyl-2-ylcarbonyl)-6-(4-methylpyrimidin-2-yl)-3,6-diazabicyclo[3.2.0]heptane] | 980 nM | 10000 nM |  |
| Cc1cnc(C)c(N2C[C@@H]3CCN(C(=O)c4ccc(F)cc4-n4nccn4)C[C@@H]32)n1 [Example 31, (1R,6S)-[8-(3,6-Dimethyl-pyrazin-2-yl)-3,8-diaza-bicyclo[4.2.0]oct-3-yl]-(4-fluoro-2-[1,2,3]triazol-2-yl-phenyl)-methanone] | 81 nM | ≥ 10000 nM |  |
| Cc1ccc(-c2ncccn2)c(C(=O)N2CC[C@H]3CN(c4nc(C)cc(C)n4)[C@H]3C2)c1 [Example 27, (1R,6S)-[8-(4,6-Dimethyl-pyrimidin-2-yl)-3,8-diaza-bicyclo[4.2.0]oct-3-yl]-(5-methyl-2-pyrimidin-2-yl-phenyl)-methanone] | 28 nM | 143 nM |  |
| Cc1cccc(N2C[C@@H]3CCN(C(=O)c4cc(F)ccc4-n4nccn4)C[C@@H]32)n1 [Example 126, (1R,6S)-3-{[5-Fluoro-2-(2H-1,2,3-triazol-2-yl)phenyl]carbonyl}-8-(6-methylpyridin-2-yl)-3,8-diazabicyclo[4.2.0]octane] | 149 nM | 5470 nM |  |
| Cc1cnc(C)c(N2C[C@@H]3CCN(C(=O)c4cccc(F)c4-n4nccn4)C[C@@H]32)n1 [Example 99, (1R,6S)-8-(3,6-Dimethylpyrazin-2-yl)-3-{[3-fluoro-2-(2H-1,2,3-triazol-2-yl)phenyl]carbonyl}-3,8-diazabicyclo[4.2.0]octane] | 96 nM | 4140 nM |  |
| Cc1cccc(N2C[C@@H]3CCN(C(=O)c4ccccc4-n4nccn4)C[C@@H]32)n1 [Example 125, (1R,6S)-8-(6-Methylpyridin-2-yl)-3-{[2-(2H-1,2,3-triazol-2-yl)phenyl]carbonyl}-3,8-diazabicyclo[4.2.0]octane] | 73 nM | 3300 nM |  |
| COc1ccccc1C(=O)N1CC2CN(c3cnc4ccccc4n3)C2C1 (centres unmarked) [Example 54, 2-{3-[(2-Methoxyphenyl)carbonyl]-3,6-diazabicyclo[3.2.0]hept-6-yl}quinoxaline] | 2420 nM | 3450 nM |  |
| Cc1cc(N2C[C@@H]3CCN(C(=O)c4ccc(C)nc4-n4ccnn4)C[C@@H]32)nc(C(F)(F)F)n1 [Example 91, (1R,6S)-3-{[6-Methyl-2-(1H-1,2,3-triazol-1-yl)pyridin-3-yl]carbonyl}-8-[6-methyl-2-(trifluoromethyl)pyrimidin-4-yl]-3,8-diazabicyclo[4.2.0]octane] | 520 nM | 5400 nM |  |
| Cc1cc(N2C[C@@H]3CCN(C(=O)c4cc(F)ccc4-n4nccn4)C[C@@H]32)nc(N(C)C)n1 [Example 40, (1R,6S)-[8-(2-Dimethylamino-6-methyl-pyrimidin-4-yl)-3,8-diaza-bicyclo[4.2.0]oct-3-yl]-(5-fluoro-2-[1,2,3]triazol-2-yl-phenyl)-methanone] | 91 nM | 1210 nM |  |
| O=C(c1ccccc1-c1ccco1)N1CC[C@H]2CN(c3cnc4ccccc4n3)[C@H]2C1 [Example 6, (1R,6S)(2-Furan-2-yl-phenyl)-(8-quinoxalin-2-yl-3,8-diaza-bicyclo[4.2.0]oct-3-yl)-methanone] | 20 nM | 18 nM |  |
| Cc1cc(C)nc(N2C[C@@H]3CCN(C(=O)c4ccc(F)cc4-n4nccn4)C[C@@H]32)n1 [Example 30, (1R,6S)-[8-(4,6-Dimethyl-pyrimidin-2-yl)-3,8-diaza-bicyclo[4.2.0]oct-3-yl]-(4-fluoro-2-[1,2,3]triazol-2-yl-phenyl)-methanone] | 13 nM | 978 nM |  |
| O=C(c1cc(F)ccc1-n1nccn1)N1CC[C@H]2CN(c3nc4cc(Cl)ccc4o3)[C@H]2C1 [Example 121, 5-Chloro-2-[(1R,6S)-3-{[5-fluoro-2-(2H-1,2,3-triazol-2-yl)phenyl]carbonyl}-3,8-diazabicyclo[4.2.0]oct-8-yl]-1,3-benzoxazole] |  | 91 nM | 75 nM |
| Cc1cc(C)nc(N2C[C@@H]3CCN(C(=O)c4cccnc4C(F)(F)F)C[C@@H]32)n1 [Example 89, (1R,6S)-8-(4,6-Dimethylpyrimidin-2-yl)-3-{[2-(trifluoromethyl)pyridin-3-yl]carbonyl}-3,8-diazabicyclo[4.2.0]octane] | 220 nM | 10000 nM |  |
| O=C(c1cccc(F)c1-n1nccn1)N1CC[C@H]2CN(c3nc4cc(Cl)ccc4o3)[C@H]2C1 [Example 123, 5-Chloro-2-[(1R,6S)-3-{[3-fluoro-2-(2H-1,2,3-triazol-2-yl)phenyl]carbonyl}-3,8-diazabicyclo[4.2.0]oct-8-yl]-1,3-benzoxazole] | 45 nM | 95 nM |  |

Continued, in another order:

| Ki (human orexin-2 receptor; [1]) | Ki (human orexin 1 receptor) | Structure (SMILES) | Ki (human orexin-2 receptor) |
| --- | --- | --- | --- |
| 740 nM | 7300 nM | Cc1cc(C)nc(N2C[C@@H]3CCN(C(=O)c4cccc5c4-c4ccccc4C5=O)C[C@@H]32)n1 [Example 168, 4-{[(1R,6S)-8-(4,6-Dimethylpyrimidin-2-yl)-3,8-diazabicyclo[4.2.0]oct-3-yl]carbonyl}-9H-fluoren-9-one] |  |
| 1300 nM | 10000 nM | Cc1cc(C)nc(N2C[C@@H]3CCN(C(=O)c4ncccc4Br)C[C@@H]32)n1 [Example 181, (1R,6S)-3-[(3-Bromopyridin-2-yl)carbonyl]-8-(4,6-dimethylpyrimidin-2-yl)-3,8-diazabicyclo[4.2.0]octane] |  |
| 6000 nM | 10000 nM | Cc1cc(C)nc(N2C[C@@H]3CCN(C(=O)c4cn[nH]c4-c4ccccc4)C[C@@H]32)n1 [Example 174, (1R,6S)-8-(4,6-Dimethylpyrimidin-2-yl)-3-[(5-phenyl-1H-pyrazol-4-yl)carbonyl]-3,8-diazabicyclo[4.2.0]octane] |  |
| 16 nM | 277 nM | COc1ccc(-n2nccn2)c(C(=O)N2CC[C@H]3CN(c4nc(C)cc(C)n4)[C@H]3C2)c1 [Example 134, (1R,6S)-8-(4,6-Dimethylpyrimidin-2-yl)-3-{[5-methoxy-2-(2H-1,2,3-triazol-2-yl)phenyl]carbonyl}-3,8-diazabicyclo[4.2.0]octane] |  |
| 56 nM | 600 nM | Cc1cc(C)nc(N2C[C@@H]3CCN(C(=O)c4cccc(F)c4-c4ncccn4)C[C@@H]32)n1 [Example 185, (1R,6S)-8-(4,6-Dimethylpyrimidin-2-yl)-3-[(3-fluoro-2-pyrimidin-2-ylphenyl)carbonyl]-3,8-diazabicyclo[4.2.0]octane] |  |
| 734 nM | 9000 nM | Cc1cccc(C(=O)N2CC[C@H]3CN(c4cc(N(C)C)ccn4)[C@H]3C2)c1-n1nccn1 [Example 141, N,N-Dimethyl-2-[(1R,6S)-3-{[3-methyl-2-(2H-1,2,3-triazol-2-yl)phenyl]carbonyl}-3,8-diazabicyclo[4.2.0]oct-8-yl]pyridin-4-amine] |  |
| 110 nM | 4100 nM | CN(C)c1cc(N2C[C@@H]3CCN(C(=O)c4cc(F)ccc4-n4nccn4)C[C@@H]32)ncn1 [Example 189, 6-[(1R,6S)-3-{[5-Fluoro-2-(2H-1,2,3-triazol-2-yl)phenyl]carbonyl}-3,8-diazabicyclo[4.2.0]oct-8-yl]-N,N-dimethylpyrimidin-4-amine] |  |
| 6500 nM | 10000 nM | Cc1cc(C)nc(N2C[C@@H]3CCN(C(=O)c4c(C)noc4-c4snnc4C)C[C@@H]32)n1 [Example 180, (1R,6S)-8-(4,6-Dimethylpyrimidin-2-yl)-3-{[3-methyl-5-(4-methyl-1,2,3-thiadiazol-5-yl)isoxazol-4-yl]carbonyl}-3,8-diazabicyclo[4.2.0]octane] |  |
| 11 nM | 16 nM | Cc1nc(N2C[C@@H]3CCN(C(=O)c4ccccc4-n4nccn4)C[C@@H]32)nc(C)c1C [Example 270, (1R,6S)-3-{[2-(2H-1,2,3-Triazol-2-yl)phenyl]carbonyl}-8-(4,5,6-trimethylpyrimidin-2-yl)-3,8-diazabicyclo[4.2.0]octane] |  |
| 26 nM | 1010 nM | Cc1cc(C)nc(N2C[C@@H]3CCN(C(=O)c4cc(F)ccc4-n4nccn4)C[C@@H]32)c1 [Example 128, (1R,6S)-8-(4,6-Dimethylpyridin-2-yl)-3-{[5-fluoro-2-(2H-1,2,3-triazol-2-yl)phenyl]carbonyl}-3,8-diazabicyclo[4.2.0]octane] |  |
| 82 nM | 687 nM | Cc1cc(C)nc(N2C[C@@H]3CCN(C(=O)c4cccc(F)c4-c4ncccn4)C[C@@H]32)c1 [Example 153, (1R,6S)-8-(4,6-Dimethylpyridin-2-yl)-3-[(3-fluoro-2-pyrimidin-2-ylphenyl)carbonyl]-3,8-diazabicyclo[4.2.0]octane] |  |
| 3100 nM | 2600 nM | Cc1onc(-c2ccccc2)c1C(=O)N1CC[C@H]2CN(c3ccnc(-c4ccccc4)n3)[C@H]2C1 [Example 197, (5-Methyl-3-phenylisoxazol-4-yl)((1R,6S)-8-(2-phenylpyrimidin-4-yl)-3,8-diazabicyclo[4.2.0]octan-3-yl)methanone] |  |
